Patent US20230064983A1 (priority 2020, published 2023)
“And” between values parts separate entries of the source, which are not always exact repeats. Identical values can stand only once.

Experiments:
[1] = biological target: T1, EGFR with insertion SVD between D770 and N771 (mutEGFR D770_N771insSVD) (Homo sapiens, UniProt P00533, DUP768-770); experiment: Exon20-Mutant-EGFR(D770_N771insSVD) kinase assay (TR-FRET); type: biochemical; details: 2 mM ATP, Table 2
T1 construct: amino acids R669 to A1210; made in house; host or cells: Sf9 insect cells (baculovirus)

Bub1 = biological target: T2, Bub1 (Homo sapiens, UniProt O43683); experiment: Bub1 high ATP kinase assay (TR-FRET); type: biochemical; details: Bub1 high ATP (2 mM) IC50, TR-FRET, 2 mM ATP; Table 3
T2 construct: catalytic domain of human Bub1 (amino acids 704-1085); His6 (N); made in house; host or cells: insect cells (Hi5)
Outline: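 Enzyme was His6-tagged human Bub1 catalytic domain (aa 704-1085) from Hi5 insect cells, typically about 200 ng/ml, with a biotinylated peptide substrate at high ATP. Reaction ran 60 min at 22 °C, then was stopped with EDTA. Phosphopeptide was detected by TR-FRET (anti-phosphoserine antibody, Eu-labelled anti-mouse IgG, streptavidin-XL665), read as the 665/620 nm emission ratio.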

[2] = biological target: Ba/F3-EGFR-D770_N771insSVD cells (Homo sapiens, UniProt P00533, DUP768-770, cells depend on it); experiment: Ba/F3 cell survival assay, EGFR D770_N771insSVD; type: cell-based; details: Cell Titer-Glo, 48 h, without IL-3; Table 4; read-out: BA/F3 (insSVD) IC50
Ba/F3-EGFR-WT cells = Ba/F3-EGFR-WT cells (Homo sapiens, UniProt P00533); experiment: Ba/F3 cell survival assay, wild type EGFR; type: cell-based; details: Cell Titer-Glo, 48 h, with 10 ng/mL EGF; Table 4; read-out: BA/F3 (wild type) IC50
Sequence of Ba/F3-EGFR-WT cells (P00533 whole entry, looked up, change not shown): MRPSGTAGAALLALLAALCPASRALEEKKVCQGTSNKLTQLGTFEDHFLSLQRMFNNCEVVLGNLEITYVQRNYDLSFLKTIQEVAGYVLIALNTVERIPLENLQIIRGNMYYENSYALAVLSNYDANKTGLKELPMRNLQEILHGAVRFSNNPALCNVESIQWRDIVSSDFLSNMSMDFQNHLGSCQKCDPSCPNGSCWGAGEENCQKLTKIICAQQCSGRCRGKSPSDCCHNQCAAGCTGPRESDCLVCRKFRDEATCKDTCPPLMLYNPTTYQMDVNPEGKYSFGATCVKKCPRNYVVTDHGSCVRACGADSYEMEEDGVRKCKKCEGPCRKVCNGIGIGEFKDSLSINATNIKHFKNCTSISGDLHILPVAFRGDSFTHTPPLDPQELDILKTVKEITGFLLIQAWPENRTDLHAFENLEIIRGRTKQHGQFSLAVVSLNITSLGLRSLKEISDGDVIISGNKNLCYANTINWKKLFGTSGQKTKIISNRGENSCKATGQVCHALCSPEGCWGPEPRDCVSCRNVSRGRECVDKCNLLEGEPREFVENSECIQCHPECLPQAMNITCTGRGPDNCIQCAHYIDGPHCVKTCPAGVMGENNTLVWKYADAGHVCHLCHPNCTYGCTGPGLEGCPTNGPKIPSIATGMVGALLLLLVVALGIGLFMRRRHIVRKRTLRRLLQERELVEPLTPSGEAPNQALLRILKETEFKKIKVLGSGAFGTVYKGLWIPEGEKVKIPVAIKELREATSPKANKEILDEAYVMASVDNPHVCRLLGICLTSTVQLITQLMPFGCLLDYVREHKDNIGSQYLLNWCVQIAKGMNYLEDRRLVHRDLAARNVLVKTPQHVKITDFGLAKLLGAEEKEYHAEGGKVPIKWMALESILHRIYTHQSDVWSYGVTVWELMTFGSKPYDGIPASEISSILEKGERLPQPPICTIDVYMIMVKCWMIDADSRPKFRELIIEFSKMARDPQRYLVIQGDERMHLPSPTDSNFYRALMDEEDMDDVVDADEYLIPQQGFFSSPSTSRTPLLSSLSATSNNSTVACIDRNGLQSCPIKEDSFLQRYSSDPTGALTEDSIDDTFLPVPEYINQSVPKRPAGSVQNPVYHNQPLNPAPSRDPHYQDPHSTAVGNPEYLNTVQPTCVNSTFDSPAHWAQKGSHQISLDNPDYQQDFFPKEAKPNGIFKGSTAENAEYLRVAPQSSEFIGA

T2 sequence (O43683 704-1085): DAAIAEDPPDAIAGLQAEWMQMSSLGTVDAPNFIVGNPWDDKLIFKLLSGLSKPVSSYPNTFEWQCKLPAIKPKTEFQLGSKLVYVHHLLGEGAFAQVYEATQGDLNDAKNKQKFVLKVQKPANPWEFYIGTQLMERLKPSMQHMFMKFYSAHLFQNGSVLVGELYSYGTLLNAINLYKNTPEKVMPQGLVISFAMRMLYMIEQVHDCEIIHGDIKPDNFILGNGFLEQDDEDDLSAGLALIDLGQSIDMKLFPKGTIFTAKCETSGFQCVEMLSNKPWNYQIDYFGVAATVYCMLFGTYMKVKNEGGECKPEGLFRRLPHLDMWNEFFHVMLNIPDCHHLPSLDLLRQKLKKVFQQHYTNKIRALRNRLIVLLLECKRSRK
T1 sequence (P00533 other isoform, or with tags, fused parts or gaps DUP768-770): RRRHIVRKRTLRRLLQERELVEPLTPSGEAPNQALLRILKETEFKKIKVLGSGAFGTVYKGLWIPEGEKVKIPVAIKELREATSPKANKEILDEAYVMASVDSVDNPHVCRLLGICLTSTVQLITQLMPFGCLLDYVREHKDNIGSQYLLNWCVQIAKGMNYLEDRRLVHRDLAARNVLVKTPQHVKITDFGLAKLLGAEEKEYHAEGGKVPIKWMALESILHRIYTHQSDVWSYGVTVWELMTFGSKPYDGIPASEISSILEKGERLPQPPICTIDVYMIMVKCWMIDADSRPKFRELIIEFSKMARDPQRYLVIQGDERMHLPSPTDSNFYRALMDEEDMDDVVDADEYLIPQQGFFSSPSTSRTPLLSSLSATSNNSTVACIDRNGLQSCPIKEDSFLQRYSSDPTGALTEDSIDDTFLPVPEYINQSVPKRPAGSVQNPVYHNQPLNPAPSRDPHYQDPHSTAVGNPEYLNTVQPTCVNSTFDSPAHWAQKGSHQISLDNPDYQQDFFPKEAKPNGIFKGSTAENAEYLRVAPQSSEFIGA
Sequence of Ba/F3-EGFR-D770_N771insSVD cells (P00533 with tags, fused parts or gaps DUP768-770): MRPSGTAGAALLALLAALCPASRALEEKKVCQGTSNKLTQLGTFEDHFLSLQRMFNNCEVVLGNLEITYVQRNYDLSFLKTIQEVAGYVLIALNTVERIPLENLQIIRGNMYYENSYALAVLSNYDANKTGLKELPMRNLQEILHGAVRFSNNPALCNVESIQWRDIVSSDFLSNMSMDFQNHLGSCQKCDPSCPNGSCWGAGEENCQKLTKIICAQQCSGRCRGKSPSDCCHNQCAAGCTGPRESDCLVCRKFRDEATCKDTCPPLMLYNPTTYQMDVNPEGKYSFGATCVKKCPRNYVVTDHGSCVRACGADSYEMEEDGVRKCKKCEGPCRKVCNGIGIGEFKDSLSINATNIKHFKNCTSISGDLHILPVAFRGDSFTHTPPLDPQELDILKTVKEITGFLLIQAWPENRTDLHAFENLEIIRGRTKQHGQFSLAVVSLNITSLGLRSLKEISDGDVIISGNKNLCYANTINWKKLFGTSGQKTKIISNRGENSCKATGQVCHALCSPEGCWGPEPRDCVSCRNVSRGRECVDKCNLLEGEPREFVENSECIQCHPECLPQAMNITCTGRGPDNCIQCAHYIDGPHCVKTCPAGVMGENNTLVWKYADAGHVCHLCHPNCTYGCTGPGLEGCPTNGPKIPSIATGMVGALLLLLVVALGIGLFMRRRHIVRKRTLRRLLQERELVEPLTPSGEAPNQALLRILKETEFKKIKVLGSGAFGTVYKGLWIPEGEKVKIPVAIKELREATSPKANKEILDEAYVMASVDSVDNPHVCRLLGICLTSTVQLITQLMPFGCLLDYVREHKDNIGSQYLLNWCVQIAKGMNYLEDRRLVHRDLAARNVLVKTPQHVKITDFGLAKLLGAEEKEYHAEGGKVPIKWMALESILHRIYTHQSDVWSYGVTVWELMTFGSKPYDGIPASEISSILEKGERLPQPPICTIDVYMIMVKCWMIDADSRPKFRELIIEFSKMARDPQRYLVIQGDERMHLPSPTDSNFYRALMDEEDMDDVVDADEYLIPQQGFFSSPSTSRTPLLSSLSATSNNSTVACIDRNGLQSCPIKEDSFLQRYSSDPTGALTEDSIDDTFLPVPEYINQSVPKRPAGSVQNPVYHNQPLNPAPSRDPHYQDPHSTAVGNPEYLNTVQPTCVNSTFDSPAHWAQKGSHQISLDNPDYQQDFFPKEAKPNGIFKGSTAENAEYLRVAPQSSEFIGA

| SMILES | mutEGFR (D770_N771insSVD) kinase assay IC50 [1] | IC50 (Bub1) | GI50 [2] | GI50 (Ba/F3-EGFR-WT cells) |
| --- | --- | --- | --- | --- |
| COc1c(Cl)cccc1Nc1c(-c2ccncc2OC[C@@H]2CCCO2)[nH]c2c1C(=O)N[C@@H]1CCC[C@H]21 [Example 56, (5aR,8aS)-3-(3-chloro-2-methoxyanilino)-2-(3-{[(2S)-oxolan-2-yl]methoxy}-4-pyridyl)-5,5a,6,7,8,8a-hexahydrocyclopenta[b]pyrrolo[2,3-d]pyridin-4(1H)-one] | 0.194 nM | 18500 nM and 18800 nM and > 20000 nM | 51.5 nM | 693 nM |
| COc1c(Cl)cccc1Nc1c(-c2ccncc2OCC2COC(C)(C)CO2)[nH]c2c1C(=O)NC1(CC1)C2 (single isomer, unassigned) [Example 134, 3′-(3-chloro-2-methoxyanilino)-2′-(3-{[5,5-dimethyl-1,4-dioxan-2-yl]methoxy}pyridin-4-yl)-1′,7′-dihydrospiro[cyclopropane-1,6′-pyrrolo[3,2-c]pyridin]-4′(5′H)-one] | 0.179 nM | 1160 nM | 92.8 nM | 718 nM |
| COc1c(Cl)cccc1Nc1c(-c2ccncc2OC[C@@H]2CCCO2)[nH]c2c1C(=O)NCC2CC=C(F)F (single isomer, unassigned) [Example 100] | 0.35 nM | 3640 nM | 58.9 nM | 990 nM |
| COc1c(Cl)cccc1Nc1c(-c2ccncc2OC[C@@H]2CCCO2)[nH]c2c1C(=O)NCC2CCC(F)(F)F (single isomer, unassigned) [Example 98] | 0.525 nM | 954 nM | 18.1 nM | 444 nM |
| COc1c(Cl)cccc1Nc1c(-c2ccncc2OCCC(C)OC)[nH]c2c1C(=O)N[C@H](C)C2 (single isomer, unassigned) [Example 122] | 0.122 nM | 741 nM | 23.8 nM | 506 nM |
| COc1c(Cl)cccc1Nc1c(-c2ccncc2OC[C@@H]2CCCCO2)[nH]c2c1C(=O)NC1(CCC1)C2 [Example 127, 3′-(3-chloro-2-methoxyanilino)-2′-(3-{[(2S)-oxan-2-yl]methoxy}pyridin-4-yl)-1′,7′-dihydrospiro[cyclobutane-1,6′-pyrrolo[3,2-c]pyridin]-4′(5′H)-one] | 0.51 nM | 1440 nM | 12.1 nM | 406 nM |
| COc1c(Cl)cccc1Nc1c(-c2ccncc2OCC2COC(C)(C)CO2)[nH]c2c1C(=O)NC1(CC1)C2 (single isomer, unassigned) [Example 133, 3′-(3-chloro-2-methoxyanilino)-2′-(3-{[5,5-dimethyl-1,4-dioxan-2-yl]methoxy}pyridin-4-yl)-1′,7′-dihydrospiro[cyclopropane-1,6′-pyrrolo[3,2-c]pyridin]-4′(5′H)-one] | 0.341 nM | 1650 nM | 22.2 nM | 484 nM |
| COc1c(Cl)cccc1Nc1c(-c2ccncc2OCC2COCCO2)[nH]c2c1C(=O)NCC2C (single isomer, unassigned) [Example 37, 3-(3-chloro-2-methoxy-anilino)-2-[3-(1,4-dioxan-2-ylmethoxy)-4-pyridyl]-7-methyl-1,5,6,7-tetrahydropyrrolo[3,2-c]pyridin-4-one] | 0.318 nM | 2870 nM | 149 nM | 1090 nM |
| COc1c(Cl)cccc1Nc1c(-c2ccncc2OC[C@@H]2CCCO2)[nH]c2c1C(=O)NC(C(F)(F)F)C2 (mixture of isomers) [Example 38, 3-(3-chloro-2-methoxy-anilino)-2-(3-{[(2S)-tetrahydrofuran-2-yl]methoxy}-4-pyridyl)-6-(trifluoromethyl)-1,5,6,7-tetrahydropyrrolo[3,2-c]pyridin-4-one] | 0.188 nM | 628 nM | 138 nM | 996 nM |
| COc1c(Cl)cccc1Nc1c(-c2ccncc2OCC2COC(C)(C)CO2)[nH]c2c1C(=O)N[C@H](C)C2 (single isomer, unassigned) [Example 79] | 0.455 nM | 17300 nM and > 20000 nM | 151 nM | 1910 nM |
| COc1c(Cl)cccc1Nc1c(-c2ccncc2OCCC2CCCCO2)[nH]c2c1C(=O)N[C@H](C)C2 (stereo partly drawn) [Example 86, (6R)-3-(3-chloro-2-methoxy-anilino)-6-methyl-2-[3-(2-tetrahydropyran-2-ylethoxy)-4-pyridyl]-1,5,6,7-tetrahydropyrrolo[3,2-c]pyridin-4-one] | 0.261 nM | 2400 nM | 19.3 nM | 480 nM |
| COc1c(Cl)cccc1Nc1c(-c2ccncc2OCC2OCCCC2(F)F)[nH]c2c1C(=O)N[C@H](C)C2 (single isomer, unassigned) [Example 76] | 0.24 nM | > 5700 nM | 177 nM | 2440 nM |
| CCc1c(Cl)cccc1Nc1c(-c2ccncc2OC[C@@H]2CN(C)CCO2)[nH]c2c1C(=O)N[C@H](C)C2 [Example 91, (6R)-3-(3-chloro-2-ethylanilino)-6-methyl-2-(3-{[(2S)-4-methylmorpholin-2-yl]methoxy}pyridin-4-yl)-1,5,6,7-tetrahydro-4H-pyrrolo[3,2-c]pyridin-4-one] | 0.334 nM | > 20000 nM | 30.2 nM | 556 nM |
| COc1c(Cl)cccc1Nc1c(-c2ccncc2OC[C@@H]2CCCO2)[nH]c2c1C(=O)NCC2CCC(F)(F)F (single isomer, unassigned) [Example 99] | 0.72 nM | > 20000 nM | 45.9 nM | 846 nM |
| COc1c(Cl)cccc1Nc1c(-c2ccncc2OC[C@@H]2CN(C)CCO2)[nH]c2c1C(=O)N[C@@H]1CCC[C@H]21 [Example 64, (5aR,8aS)-3-(3-chloro-2-methoxyanilino)-2-(3-{[(2S)-4-methylmorpholin-2-yl]methoxy}pyridin-4-yl)-5,5a,6,7,8,8a-hexahydrocyclopenta[b]pyrrolo[2,3-d]pyridin-4(1H)-one] | 0.361 nM | > 20000 nM | 47.6 nM | 643 nM |
| COc1c(Cl)cccc1Nc1c(-c2ccncc2OCC2COCCO2)[nH]c2c1C(=O)NC1(CCC1)C2 (single isomer, unassigned) [Example 125, 3-(3-chloro-2-methoxy-anilino)-2-[3-(1,4-dioxan-2-ylmethoxy)-4-pyridyl]spiro[5,7-dihydro-1H-pyrrolo[3,2-c]pyridine-6,1′-cyclobutane]-4-one] | 0.235 nM | 446 nM | 40.4 nM | 948 nM |
| COCC(C)Oc1cnccc1-c1[nH]c2c(c1Nc1cccc(Cl)c1OC)C(=O)N[C@H](C)C2 (single isomer, unassigned) [Example 42] | 0.213 nM | 8810 nM | 15.3 nM | 531 nM |
| COc1c(Cl)cccc1Nc1c(-c2ccncc2OCC2COCCO2)[nH]c2c1C(=O)NC1(CCC1)C2 (stereo not shown) [Example 123, 3-(3-chloro-2-methoxy-anilino)-2-[3-(1,4-dioxan-2-ylmethoxy)-4-pyridyl]spiro[5,7-dihydro-1H-pyrrolo[3,2-c]pyridine-6,1′-cyclobutane]-4-one] | 0.241 nM | 439 nM | 33.9 nM | 604 nM |
| COc1c(Cl)cccc1Nc1c(-c2ccncc2OCC(C)(C)OC)[nH]c2c1C(=O)N[C@H](C)C2 [Example 1, (6R)-3-(3-chloro-2-methoxyanilino)-2-[3-(2-methoxy-2-methylpropoxy)pyridin-4-yl]-6-methyl-1,5,6,7-tetrahydro-4H-pyrrolo[3,2-c]pyridin-4-one] | 0.135 nM | 1320 nM | 17.8 nM | 417 nM |
| Cc1c(Cl)cccc1Nc1c(-c2ccncc2OC[C@@H]2CN(C)CCO2)[nH]c2c1C(=O)N[C@H](C)C2 [Example 107, (6R)-3-(3-chloro-2-methylanilino)-6-methyl-2-(3-{[(2S)-4-methylmorpholin-2-yl]methoxy}pyridin-4-yl)-1,5,6,7-tetrahydro-4H-pyrrolo[3,2-c]pyridin-4-one] | 0.115 nM | > 20000 nM | 25 nM | 546 nM |
| COc1c(Cl)cccc1Nc1c(-c2ccncc2OC[C@@H]2COCCN2C)[nH]c2c1C(=O)NCC2CCO (single isomer, unassigned) [Example 116] | 0.276 nM | 13700 nM | 169 nM | 2030 nM |
| CCc1c(Cl)cccc1Nc1c(-c2ccncc2OC[C@@H]2COCCO2)[nH]c2c1C(=O)N[C@H](C)C2 [Example 110, (6R)-3-(3-chloro-2-ethylanilino)-2-(3-{[(2S)-1,4-dioxan-2-yl]methoxy}pyridin-4-yl)-6-methyl-1,5,6,7-tetrahydro-4H-pyrrolo[3,2-c]pyridin-4-one] | 0.333 nM | 1210 nM | 40.3 nM | 780 nM |
